From patent US20100056524A1, “Compound” (priority 2008, published 2010)
Structures can show the parent of a compound that is named as a salt.

What follows are compounds tested against T1, TBK1 (Homo sapiens, UniProt Q9UHD2) (assay: TBK1 protein kinase assay ([γ-33P]ATP, P81 filterplates)). Conditions: 50 μM ATP; read-out: Potency (TBK1 IC50 potency score).
T1 construct: All protein kinases were of human origin and encoded full length proteins, unless indicated otherwise; His6; made in house; host or cells: insect Sf21 cells
T1 sequence (Q9UHD2 1-729): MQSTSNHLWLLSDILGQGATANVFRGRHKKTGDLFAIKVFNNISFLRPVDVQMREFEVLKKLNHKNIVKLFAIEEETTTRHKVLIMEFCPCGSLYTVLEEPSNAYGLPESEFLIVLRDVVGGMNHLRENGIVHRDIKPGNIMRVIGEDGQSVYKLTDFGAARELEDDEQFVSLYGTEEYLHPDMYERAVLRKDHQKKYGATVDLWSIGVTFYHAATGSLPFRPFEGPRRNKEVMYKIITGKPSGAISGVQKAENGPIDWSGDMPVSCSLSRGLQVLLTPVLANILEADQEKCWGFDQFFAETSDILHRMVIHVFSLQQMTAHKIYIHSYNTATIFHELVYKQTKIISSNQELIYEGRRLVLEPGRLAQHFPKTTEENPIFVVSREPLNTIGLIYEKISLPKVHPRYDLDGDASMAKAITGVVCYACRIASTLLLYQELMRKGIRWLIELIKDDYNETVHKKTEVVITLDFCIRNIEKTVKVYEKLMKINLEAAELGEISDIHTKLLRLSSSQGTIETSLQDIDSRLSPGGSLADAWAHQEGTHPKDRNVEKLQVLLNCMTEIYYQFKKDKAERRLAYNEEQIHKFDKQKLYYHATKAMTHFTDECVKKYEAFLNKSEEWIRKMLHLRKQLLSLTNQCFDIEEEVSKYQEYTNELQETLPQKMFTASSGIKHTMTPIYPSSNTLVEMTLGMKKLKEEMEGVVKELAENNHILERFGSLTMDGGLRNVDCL
Assay type: biochemical
Outline: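 Human TBK1 assayed for 30 min with peptide substrate (300 μM), 50 μM [γ-33P]ATP and 10 mM magnesium acetate in 50 mM Tris/HCl pH 7.5, 0.1 mM EGTA, 0.1% 2-mercaptoethanol. Stopped with orthophosphoric acid and counted on P81 filters. IC50 from 10 compound concentrations.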

Row | Structure (SMILES) | IC50 [µM]
1 | CN(CCCNC(=O)C1CCC1)c1nc(Nc2cccc(F)c2)ncc1C1CC1 [Example 106, Cyclobutanecarboxylic acid (3-{[5-cyclopropyl-2-(3-fluoro-phenylamino)-pyrimidin-4-yl]-methyl-amino}-propyl)-amide] | 0.1 to 1
2 | O=C1CCCCN1CCCNc1nc(Nc2cccc(F)c2)ncc1C1CC1 [Example 110] | 0.1 to 1
3 | Cc1cccn(CCCNc2nc(Nc3cccc(F)c3)ncc2C2CC2)c1=O [Example 111, 1-{3-[5-Cyclopropyl-2-(3-fluoro-phenylamino)-pyrimidin-4-ylamino]-propyl}-3-methyl-H-pyridin-2-one] | 0.1 to 1
4 | CN1CCN(CCCNc2nc(Nc3cccc(F)c3)ncc2C2CC2)C1=O [Example 112, 1-{3-[5-Cyclopropyl-2-(3-fluoro-phenylamino)-pyrimidin-4-ylamino]-propyl}-3-methyl-imidazolidin-2-one] | 0.1 to 1
5 | CC1(C)CCN(CCCNc2nc(Nc3cccc(F)c3)ncc2C2CC2)C1=O [Example 113, 1-{3-[5-Cyclopropyl-2-(3-fluoro-phenylamino)-pyrimidin-4-ylamino]-propyl}-3,3-dimethyl-pyrrolidin-2-one] | 0.1 to 1
6 | O=c1c(C(F)(F)F)cccn1CCCNc1nc(Nc2cccc(F)c2)ncc1C1CC1 [Example 114, 1-{3-[5-Cyclopropyl-2-(3-fluoro-phenylamino)-pyrimidin-4-ylamino]-propyl}-3-trifluoromethyl-1H-pyridin-2-one] | 0.1 to 1
7 | CC(c1cccc(Nc2ncc(C3CC3)c(NCCCNC(=O)C3CCC3)n2)c1)N1CCOCC1 (centres unmarked) [Example 123, Cyclobutanecarboxylic acid (3-{5-cyclopropyl-2-[3-(1-morpholin-4-yl-ethyl)-phenylamino]-pyrimidin-4-ylamino}-propyl)-amide] | < 0.1
8 | O=C(NCCCNc1nc(Nc2cccc(C(=O)N3CCCC3)c2)ncc1C1CC1)C1CCC1 [Example 124, Cyclobutanecarboxylic acid (3-{5-cyclopropyl-2-[3-(pyrrolidine-1-carbonyl)-phenylamino]-pyrimidin-4-ylamino}-propyl)-amide] | < 0.1
9 | CN(C)[C@H]1CCN(C(=O)c2cccc(Nc3ncc(C4CC4)c(NCCCNC(=O)C4CCC4)n3)c2)C1 [Example 125, Cyclobutanecarboxylic acid (3-{5-cyclopropyl-2-[3-((S)-3-dimethylamino-pyrrolidine-1-carbonyl)-phenylamino]-pyrimidin-4-ylamino}-propyl)-amide] | < 0.1
10 | CN(C)[C@@H]1CCN(C(=O)c2cccc(Nc3ncc(C4CC4)c(NCCCNC(=O)C4CCC4)n3)c2)C1 [Example 126, Cyclobutanecarboxylic acid (3-{5-cyclopropyl-2-[3-((R)-3-dimethylamino-pyrrolidine-1-carbonyl)-phenylamino]-pyrimidin-4-ylamino}-propyl)-amide] | < 0.1
11 | CN1CCN(C(=O)Cc2cccc(Nc3ncc(C4CC4)c(NCCCNC(=O)C4CCC4)n3)c2)CC1 [Example 127, Cyclobutanecarboxylic acid [3-(5-cyclopropyl-2-{3-[2-(4-methyl-piperazin-1-yl)-2-oxo-ethyl]-phenylamino}-pyrimidin-4-ylamino)-propyl]-amide] | < 0.1
12 | CN(C)C1CCN(C(=O)Cc2cccc(Nc3ncc(C4CC4)c(NCCCNC(=O)C4CCC4)n3)c2)CC1 [Example 128, Cyclobutanecarboxylic acid [3-(5-cyclopropyl-2-{3-[2-(4-dimethylamino-piperidin-1-yl)-2-oxo-ethyl]-phenylamino}-pyrimidin-4-ylamino)-propyl]-amide] | < 0.1
13 | O=C(NCCCNc1nc(Nc2ccc3cn[nH]c3c2)ncc1C1CC1)C1CCC1 [Example 129, Cyclobutanecarboxylic acid {3-[5-cyclopropyl-2-(1H-indazol-6-ylamino)-pyrimidin-4-ylamino]-propyl}-amide. Hydrochloride] | < 0.1
14 | O=C(NCCCNc1nc(Nc2ccc3[nH]ncc3c2)ncc1C1CC1)C1CCC1 [Example 130, Cyclobutanecarboxylic acid {3-[5-cyclopropyl-2-(1H-indazol-5-ylamino)-pyrimidin-4-ylamino]-propyl}-amide] | < 0.1
15 | O=C(NCCCNc1nc(Nc2cccc(CN3CCCC3)c2)ncc1C1CC1)C1CCC1 [Example 131, Cyclobutanecarboxylic acid {3-[5-cyclopropyl-2-(3-pyrrolidin-1-ylmethyl-phenylamino)-pyrimidin-4-ylamino]-propyl}-amide] | < 0.1
16 | CN(Cc1cccc(Nc2ncc(C3CC3)c(NCCCNC(=O)C3CCC3)n2)c1)C1CCCC1 [Example 132, Cyclobutanecarboxylic acid [3-(2-{3-[(cyclopentyl-methyl-amino)-methyl]-phenylamino}-5-cyclopropyl-pyrimidin-4-ylamino)-propyl]-amide] | < 0.1
17 | CC(C)CN(C)Cc1cccc(Nc2ncc(C3CC3)c(NCCCNC(=O)C3CCC3)n2)c1 [Example 133, Cyclobutanecarboxylic acid [3-(5-cyclopropyl-2-{3-[(isobutyl-methyl-amino)-methyl]-phenylamino}-pyrimidin-4-ylamino)-propyl]-amide] | < 0.1
18 | O=C(NCCCNc1nc(Nc2cccc(CN3CCCCC3)c2)ncc1C1CC1)C1CCC1 [Example 134, Cyclobulanecarboxylic acid {3-[5-cyclopropyl-2-(3-piperidin-1-ylmethyl-phenylamino)-pyrimidin-4-ylamino]-propyl}-amide] | < 0.1

The next lines start with the values.

Row | IC50 [µM] | Structure (SMILES)
19 | < 0.1 | CN(CCCNc1nc(Nc2cccc(F)c2)ncc1C1CC1)C(=O)C1CCC1 [Example 107, Cyclobutanecarboxylic acid {3-[5-cyclopropyl-2-(3-fluoro-phenylamino)-pyrimidin-4-ylamino]-propyl}-methyl-amide]
20 | < 0.1 | CCCC(=O)NCCCNc1nc(Nc2cccc(F)c2)ncc1C1CC1 [Example 108]
21 | < 0.1 | CN(CCCNc1nc(Nc2ccc(N3CCOCC3)nc2)ncc1C1CC1)C(=O)C1CCC1 [Example 109, Cyclobutanecarboxylic acid {3-[5-cyclopropyl-2-(6-morpholin-4-yl-pyridin-3-ylamino)-pyrimidin-4-ylamino]-propyl}-methyl-amide]
22 | < 0.1 | Cn1cc(-c2ccc(Nc3ncc(C4CC4)c(NCCCNC(=O)C4CCC4)n3)cn2)cn1 [Example 115, Cyclobutanecarboxylic acid (3-{5-cyclopropyl-2-[6-(1-methyl-1H-pyrazol-4-yl)-pyridin-3-ylamino]-pyrimidin-4-ylamino}-propyl)-amide]
23 | < 0.1 | O=C(NCCCNc1nc(Nc2ccc(-c3cncnc3)nc2)ncc1C1CC1)C1CCC1 [Example 116, Cyclobutanecarboxylic acid {3-[5-cyclopropyl-2-(6-pyrimidin-5-yl-pyridin-3-ylamino)-pyrimidin-4-ylamino]-propyl}-amide]
24 | < 0.1 | O=C(NCCCNc1nc(Nc2cccc(-c3cncnc3)c2)ncc1C1CC1)C1CCC1 [Example 117, Cyclobutanecarboxylic acid {3-[5-cyclopropyl-2-(3-pyrimidin-5-yl-phenylamino)-pyrimidin-4-ylamino]-propyl}-amide]
25 | < 0.1 | O=C(NCCCNc1nc(Nc2ccc(-c3cn[nH]c3)nc2)ncc1C1CC1)C1CCC1 [Example 118, Cyclobutanecarboxylic acid (3-{5-cyclopropyl-2-[6-(1H-pyrazol-4-yl)-pyridin-3-ylamino]-pyrimidin-4-ylamino}-propyl)-amide]
26 | < 0.1 | O=C(NCCCNc1nc(Nc2ccc(-c3ccncc3)nc2)ncc1C1CC1)C1CCC1 [Example 119, Cyclobutanecarboxylic acid {3-[2-([2,4′]bipyridinyl-5-ylamino)-5-cyclopropyl-pyrimidin-4-ylamino]-propyl}-amide]
27 | < 0.1 | O=C(NCCCNc1nc(Nc2ccc(-c3cccnc3)nc2)ncc1C1CC1)C1CCC1 [Example 120, Cyclobutanecarboxylic acid {3-[2-([2,3′]bipyridinyl-5-ylamino)-5-cyclopropyl-pyrimidin-4-ylamino]-propyl}-amide]
28 | < 0.1 | O=C(NCCCNc1nc(Nc2cccc(-c3ccncc3)c2)ncc1C1CC1)C1CCC1 [Example 121, Cyclobutanecarboxylic acid {3-[5-cyclopropyl-2-(3-pyridin-4-yl-phenylamino)-pyrimidin-4-ylamino]-propyl}-amide]
29 | < 0.1 | CN1CCN(Cc2cccc(Nc3ncc(C4CC4)c(NCCCNC(=O)C4CCC4)n3)c2)CC1 [Example 122, Cyclobutanecarboxylic acid (3-{5-cyclopropyl-2-[3-(4-methyl-piperazin-1-ylmethyl)-phenylamino]-pyrimidin-4-ylamino}-propyl)-amide]
